Experimental findings from BindingDB's records for patent US20250257059 (Nerio Therapeutics, 2025) are described below.

The IC50 is the midpoint of a concentration-inhibition curve. The low end stands for higher potency, the high end for lower potency.

This experiment concerns the target T1, Tyrosine-protein phosphatase non-receptor type 2 (Homo sapiens, UniProt P17706).
T1 sequence (P17706 whole entry): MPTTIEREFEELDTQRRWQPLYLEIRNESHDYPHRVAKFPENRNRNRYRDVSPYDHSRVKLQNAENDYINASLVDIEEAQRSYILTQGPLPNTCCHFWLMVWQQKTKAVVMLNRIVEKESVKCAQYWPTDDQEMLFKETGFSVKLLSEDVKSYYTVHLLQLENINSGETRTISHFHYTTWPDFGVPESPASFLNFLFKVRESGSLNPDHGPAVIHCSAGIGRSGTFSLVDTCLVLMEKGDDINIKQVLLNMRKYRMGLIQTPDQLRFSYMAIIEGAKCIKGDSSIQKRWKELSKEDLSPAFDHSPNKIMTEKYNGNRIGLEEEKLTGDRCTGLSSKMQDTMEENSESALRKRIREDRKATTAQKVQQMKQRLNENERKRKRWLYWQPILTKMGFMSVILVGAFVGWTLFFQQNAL
In words: In vitro enzymatic assay. The procedure:
PTPN2 was produced in E. coli as a GST-TEV fusion and the GST was removed by TEV digestion, followed by additional purification to yield full-length PTPN2 (SEQ ID 1). PTPN2 enzyme was diluted in assay buffer (50 mM HEPES pH7.5, 0.2 mM EDTA, 1 mM DTT, 0.02% Brij-35, 0.02% BSA) to a final concentration of 0.5 nM and added to black 384-well non-binding plates (Greiner, 781900). Compounds were subsequently added using a Tecan D300e dispenser. Following a 10 min incubation at room temperature, DiFMUP substrate (ThermoFisher, D22065) was added to a final concentration of 100 μM. Plates were transferred to a SpectraMax plate reader (Molecular Devices) and fluorescence intensity was measured (ex 358, em 455) after a 30 min incubation at room temperature. […] A four-parameter curve fit was used to determine IC50 values from % inhibition data.
`COC[C@@H]1CCN(CCc2cc(O)c(N3CC(=O)NS3(=O)=O)c(F)c2)C1` [US20250257059, Example 117] returned an IC50 of 1 nM. Then `O=C1CN(c2c(O)cc(CCN3CCCC(F)C3)cc2F)S(=O)(=O)N1` (centres undefined) [US20250257059, Example 97], with 3 nM; and `O=C1CN(c2c(O)cc(CCN3CC[C@@H](C(F)(F)F)C3)cc2F)S(=O)(=O)N1` [US20250257059, Example 122], with 3 nM; and `O=C1CN(c2c(O)cc(CC3CCCCNC3)cc2F)S(=O)(=O)N1` (centres undefined) [US20250257059, Example 55], with 16 nM. Turning to `O=C1CN(c2c(O)cc(CCN3CCC4(CCOCC4)C3)cc2F)S(=O)(=O)N1` [US20250257059, Example 113], the IC50 is 2 nM. For `CC(C)[C@H]1CCN(CCc2cc(O)c(N3CC(=O)NS3(=O)=O)c(F)c2)C1` [US20250257059, Example 135] the value was 2 nM; for `O=C1CN(c2c(O)cc(CCN3Cc4ccccc4C3)cc2F)S(=O)(=O)N1` [US20250257059, Example 128], 2 nM; for `O=C1CN(c2c(O)ccc(CC3CCCCN3CCC3CCCC3)c2F)S(=O)(=O)N1` (centres undefined) [US20250257059, Example 80], 5 nM. With `CC(C)CCCN1CCCCC1Cc1ccc(O)c(N2CC(=O)NS2(=O)=O)c1F` (centres undefined) [US20250257059, Example 79], the midpoint of inhibition, the IC50, lay at 7 nM.

In turn, `O=C1CN(c2c(O)cc(CCN3CC(C(F)(F)F)C3)cc2F)S(=O)(=O)N1` [US20250257059, Example 137] returned an IC50 of 5 nM. For `O=C1CN(c2c(O)cc(CC3CCN(Cc4ccco4)C3)cc2F)S(=O)(=O)N1` (centres undefined) [US20250257059, Example 7], inhibition was half-maximal at 7 nM (IC50). Then `CC(C)[C@@H]1CCN(CCc2cc(O)c(N3CC(=O)NS3(=O)=O)c(F)c2)C1` [US20250257059, Example 134], with 1 nM. For `CC1CN(CCc2cc(O)c(N3CC(=O)NS3(=O)=O)c(F)c2)C1` [US20250257059, Example 140] the value was 2 nM. Then `O=C1CN(c2c(O)cc(CCN3CCC4(CCCC4)C3)cc2F)S(=O)(=O)N1` [US20250257059, Example 112], with 2 nM; and `CC1(C)CN(CCc2cc(O)c(N3CC(=O)NS3(=O)=O)c(F)c2)C1` [US20250257059, Example 127], with 2 nM. In the case of `O=C1CN(c2c(O)cc(CCN3CC(F)C3)cc2F)S(=O)(=O)N1` [US20250257059, Example 136], half-maximal inhibition (IC50) was put at 3 nM.

Molecule `COC1CCN(CCc2cc(O)c(N3CC(=O)NS3(=O)=O)c(F)c2)CC1` [US20250257059, Example 104] registered an IC50 of 3 nM. For `CC(C)(C)C1CCN(CCc2cc(O)c(N3CC(=O)NS3(=O)=O)c(F)c2)C1` (centres undefined) [US20250257059, Example 111] the value was 2 nM. For `O=C1CN(c2c(O)cc(CCN3CCOCC3)cc2F)S(=O)(=O)N1` [US20250257059, Example 89] the value was 7 nM.
